Key:
c-Kit = c-Kit (Homo sapiens, UniProt P10721); experiment: cKit kinase mobility shift assay; assay type: biochemical
Method: The effect of the compounds on the activity of cKit, RET and AXL kinases were assessed by Mobility shift assay. • 1. 1× kinase base buffer and stop buffer for testing kinases were prepared • 1-1) 1× Kinase base buffer (50 mM HEPES, pH 7.5, 0.01% Triton X-100) • 1-2) Stop buffer (100 mM HEPES, pH 7.5, 0.015% Brij-35, 0.2% Coating Reagent #3, 50 mM EDTA) • 2. Compound and assay plate preparation: the compound was diluted to 50× of the final desired highest inhibitor concentration in reaction by 100% DMSO. 100 μl of this compound dilution was transferred to a well in a 96-well plate. For example, if the highest desired concentration was 5 μM, then 250 μM of compound DMSO solution was prepared in this step. For all compounds, the compound was serially diluted by transferring 10 μl to 70 μl of 100 DMSO in the next well and so forth for a total of 5 concentrations. 100 μl of 100% DMSO was added to two empty wells for no compound control and no enzyme control in the same 96-well plate. The plate was labeled as source plate. The intermediate plate was prepared by transferring 10 μl of compound from source plate to a new 96-well plate as the intermediate plate, adding 90 μl of 1× kinase buffer to each well of the intermediate plate, mixing the compounds in intermediate plate for 10 min on shaker. 5 μl of each well from the 96-well intermediate plate were transferred to a 384-well plate in duplicates. For example, A1 of the 96-well plate was transferred to A1 and A2 of the 384-well plate. A2 of the 96-well plate was transferred to A3 and A4 of the 384-well plate, and so on. • 4. Kinase reaction: The assay plate already contained 5 μl of compound in 10% DMSO. A 2.5× enzyme solution was prepared by adding kinases (cKit, RET, or AXL) and DTT in 1× kinase base buffer. 2.5× enzyme solution was transferred to the assay plate (by adding 10 μl of 2.5× enzyme solution to each well of the 384-well assay plate). The plate was incubated at room temperature for 10 min. 2.5× peptide solution was prepared by adding FAM-labeled peptide, ATP, MgCl2 in the 1× kinase base buffer. 2.5× peptide solution was added to the assay plate by adding 10 μl of 2.5× peptide solution to each well of the 384-well assay plate. The plate was incubated at 28° C. for the specified period of time. 25 μl of stop buffer was added to stop reaction. Data was collected on Caliper.

[1] = Mouse pharmacokinetics study (intravenous and oral); assay type: in vivo; conditions: CD-1 mice; for F / AUC / Cmax / Tmax: PO 25 mg/kg; for Vd / half-life / clearance / AUC / Cmax / Tmax: mouse, plasma; for Vd / half-life / clearance: IV 5 mg/kg; for clearance: read-out: Clp
Source text: The test articles were formulated in […] Hydroxypropyl-beta-cyclodextrin, either as a clear solution or fine suspension.

HPK1 (MAP4K1) = HPK1 (MAP4K1) (Homo sapiens, UniProt Q92918); experiment: HPK1 (MAP4K1) kinase Lantha screen assay; assay type: biochemical
Method in brief: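 Recombinant MAP4K1 preincubated 10 min with compound (6-point dilution, duplicates) in 50 mM HEPES pH 7.5, 10 mM MgCl2, then reacted with Fluorescein-PKC substrate and ATP for 90 min at room temperature. Antibody detection solution stopped reaction; after 60 min, TR-FRET read at ex 340 nm, em 520/495 nm.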

SRC = molecular target: T1, SRC (Homo sapiens, UniProt P12931); experiment: In vitro kinase assay, SRC (Caliper EZ Reader conversion); assay type: biochemical; conditions: read-out: SRC IC50
T1 construct: purchased Carna Biosciences

PAK1 = PAK1 (Homo sapiens, UniProt Q13153); experiment: In vitro kinase assay, PAK1 (Caliper EZ Reader conversion); assay type: biochemical; parameters: purchased Carna Biosciences
Method in brief: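 Human PAK1 was preincubated with compound (6 concentrations, 4-fold dilutions) for 10 min at room temperature, then reacted with substrate mix for 30 and 60 min. Substrate conversion was read by Caliper mobility shift. IC50 was fitted by variable-slope log(inhibitor)–response, normalised to FRAX597 and buffer controls.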

HPK1 (MAP4K1), sequence (Q92918 whole entry, species assumed): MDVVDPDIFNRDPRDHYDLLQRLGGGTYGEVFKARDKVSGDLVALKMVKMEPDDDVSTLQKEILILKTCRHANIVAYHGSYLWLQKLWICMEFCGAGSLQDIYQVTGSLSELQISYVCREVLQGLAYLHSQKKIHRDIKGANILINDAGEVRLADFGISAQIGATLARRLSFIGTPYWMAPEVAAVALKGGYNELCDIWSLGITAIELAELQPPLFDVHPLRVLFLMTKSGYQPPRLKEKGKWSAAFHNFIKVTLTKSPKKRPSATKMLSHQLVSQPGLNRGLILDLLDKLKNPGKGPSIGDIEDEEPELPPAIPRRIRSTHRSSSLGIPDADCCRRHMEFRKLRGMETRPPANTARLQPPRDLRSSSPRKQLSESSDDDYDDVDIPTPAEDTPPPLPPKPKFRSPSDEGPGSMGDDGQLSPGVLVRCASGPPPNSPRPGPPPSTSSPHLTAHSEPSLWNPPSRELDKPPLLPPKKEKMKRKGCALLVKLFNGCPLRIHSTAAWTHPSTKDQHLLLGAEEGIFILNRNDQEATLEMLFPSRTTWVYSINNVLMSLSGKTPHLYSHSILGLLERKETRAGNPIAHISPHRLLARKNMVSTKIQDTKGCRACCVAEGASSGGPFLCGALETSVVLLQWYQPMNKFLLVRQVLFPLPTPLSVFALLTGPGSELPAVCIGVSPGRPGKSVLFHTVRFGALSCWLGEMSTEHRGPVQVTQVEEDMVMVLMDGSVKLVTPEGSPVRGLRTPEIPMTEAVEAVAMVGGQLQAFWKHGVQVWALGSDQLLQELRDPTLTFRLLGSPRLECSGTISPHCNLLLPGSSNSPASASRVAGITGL
c-Kit, sequence (P10721 26-976): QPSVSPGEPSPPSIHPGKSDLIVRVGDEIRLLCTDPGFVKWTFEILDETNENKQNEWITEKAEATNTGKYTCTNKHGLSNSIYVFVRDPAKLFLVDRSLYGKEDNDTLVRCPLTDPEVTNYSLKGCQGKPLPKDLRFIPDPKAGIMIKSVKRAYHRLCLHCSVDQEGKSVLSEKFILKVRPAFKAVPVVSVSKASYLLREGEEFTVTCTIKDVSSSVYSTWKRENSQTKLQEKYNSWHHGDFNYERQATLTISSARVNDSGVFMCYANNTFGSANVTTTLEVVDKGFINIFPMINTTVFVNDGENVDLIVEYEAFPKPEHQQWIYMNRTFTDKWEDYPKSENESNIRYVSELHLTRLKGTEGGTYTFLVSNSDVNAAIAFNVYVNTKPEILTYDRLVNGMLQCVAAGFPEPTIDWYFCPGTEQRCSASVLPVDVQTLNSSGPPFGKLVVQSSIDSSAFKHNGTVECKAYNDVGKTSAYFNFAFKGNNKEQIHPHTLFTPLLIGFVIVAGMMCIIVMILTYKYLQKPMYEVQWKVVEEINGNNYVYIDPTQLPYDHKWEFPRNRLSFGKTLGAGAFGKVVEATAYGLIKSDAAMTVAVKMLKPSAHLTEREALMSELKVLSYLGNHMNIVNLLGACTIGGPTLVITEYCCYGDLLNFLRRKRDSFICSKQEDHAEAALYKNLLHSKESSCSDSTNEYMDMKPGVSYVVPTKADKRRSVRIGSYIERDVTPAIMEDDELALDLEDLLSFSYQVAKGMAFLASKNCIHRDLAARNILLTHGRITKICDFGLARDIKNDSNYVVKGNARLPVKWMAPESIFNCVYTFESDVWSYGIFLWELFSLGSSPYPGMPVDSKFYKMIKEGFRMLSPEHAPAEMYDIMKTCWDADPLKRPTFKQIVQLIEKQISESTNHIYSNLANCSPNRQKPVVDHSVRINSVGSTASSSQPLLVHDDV
T1 sequence (P12931 whole entry): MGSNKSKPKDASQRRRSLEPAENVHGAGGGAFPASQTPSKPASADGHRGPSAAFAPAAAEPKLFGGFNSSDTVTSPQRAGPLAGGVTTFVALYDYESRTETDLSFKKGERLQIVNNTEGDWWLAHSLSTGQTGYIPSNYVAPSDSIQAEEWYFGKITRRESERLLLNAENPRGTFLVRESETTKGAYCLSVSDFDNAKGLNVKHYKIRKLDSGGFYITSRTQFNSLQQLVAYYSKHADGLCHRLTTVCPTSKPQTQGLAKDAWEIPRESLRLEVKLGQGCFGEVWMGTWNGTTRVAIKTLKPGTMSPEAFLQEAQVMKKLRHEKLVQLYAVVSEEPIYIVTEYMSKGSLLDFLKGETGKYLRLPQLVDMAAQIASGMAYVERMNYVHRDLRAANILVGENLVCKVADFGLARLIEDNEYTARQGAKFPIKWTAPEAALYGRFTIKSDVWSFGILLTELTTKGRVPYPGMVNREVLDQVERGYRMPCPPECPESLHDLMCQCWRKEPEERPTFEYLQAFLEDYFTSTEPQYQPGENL
PAK1, sequence (Q13153 whole entry): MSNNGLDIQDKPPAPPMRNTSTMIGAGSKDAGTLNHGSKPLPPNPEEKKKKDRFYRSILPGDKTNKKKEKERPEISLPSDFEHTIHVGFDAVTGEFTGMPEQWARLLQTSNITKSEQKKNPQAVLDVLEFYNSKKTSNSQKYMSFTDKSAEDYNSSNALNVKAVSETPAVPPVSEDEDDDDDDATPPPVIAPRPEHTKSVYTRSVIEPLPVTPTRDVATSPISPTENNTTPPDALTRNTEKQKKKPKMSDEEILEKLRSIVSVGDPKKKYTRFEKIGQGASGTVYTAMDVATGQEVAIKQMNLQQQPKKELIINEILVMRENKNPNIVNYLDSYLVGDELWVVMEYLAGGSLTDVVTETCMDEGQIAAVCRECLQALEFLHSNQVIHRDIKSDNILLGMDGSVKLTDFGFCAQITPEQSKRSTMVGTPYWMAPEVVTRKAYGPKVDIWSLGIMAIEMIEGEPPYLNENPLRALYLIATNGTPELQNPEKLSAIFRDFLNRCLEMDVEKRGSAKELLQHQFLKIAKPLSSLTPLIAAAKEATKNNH

Row | SMILES | IC50 (c-Kit) | AUC [1] | Cmax [1] | Tmax [1] | further results
1 | CNc1ncc2c(n1)N1CCN=C1C(c1cc(NC(=O)Nc3ccccc3)c(F)cc1Br)=C2 [Compound 326, 1-(4-bromo-2-fluoro-5-(2-(methylamino)-8,9-dihydroimidazo[1′,2′:1,6]pyrido[2,3-d]pyrimidin-6-yl)phenyl)-3-phenylurea] | < 100 nM | – | – | – | –
2 | Cc1csc(Nc2ncc3c(n2)N2CCN=C2C(c2cc(NC(=O)c4cc(C(F)(F)F)ccn4)ccc2C)=C3)n1 [Compound 233, N-(4-methyl-3-(2-((4-methylthiazol-2-yl)amino)-8,9-dihydroimidazo[1′,2′:1,6]pyrido[2,3-d]pyrimidin-6-yl)phenyl)-4-(trifluoromethyl)picolinamide] | – | 12000 ± 2750 ng·h/mL | 893 ± 258 ng/mL | 6.67 ± 2.31 h | IC50 (HPK1 (MAP4K1)): < 100 nM
3 | Cn1cc(Nc2ncc3c(n2)N2CCN=C2C(c2ccc(Cl)cc2Cl)=C3)cn1 [Compound 102, 6-(2,4-dichlorophenyl)-N-(1-methyl-1H-pyrazol-4-yl)-8,9-dihydroimidazo[1′,2′:1,6]pyrido[2,3-d]pyrimidin-2-amine] | < 100 nM | – | – | – | –
4 | Cc1ccc(NC(=O)c2cc(C(F)(F)F)ccn2)cc1C1=Cc2cnc(Nc3ccn(C)n3)nc2N2CCN=C12 [Compound 234, N-(4-methyl-3-(2-((1-methyl-1H-pyrazol-3-yl)amino)-8,9-dihydroimidazo[1′,2′:1,6]pyrido[2,3-d]pyrimidin-6-yl)phenyl)-4-(trifluoromethyl)picolinamide] | – | 20500 ± 2190 ng·h/mL | 1630 ± 151 ng/mL | 2 h | IC50 (HPK1 (MAP4K1)): < 100 nM
5 | CNc1ncc2c(n1)N1CCN=C1C(Oc1ccc(NC(=O)NC3CC3)cc1)=C2 [Compound 312, 1-cyclopropyl-3-(4-((2-(methylamino)-8,9-dihydroimidazo[1′,2′:1,6]pyrido[2,3-d]pyrimidin-6-yl)oxy)phenyl)urea] | > 10000 nM | – | – | – | –
6 | CNc1ncc2c(n1)N1CCN=C1C(Oc1ccc(NC(=O)Nc3ccc(Cl)c(C(F)(F)F)c3)cc1)=C2 [Compound 313, 1-(4-chloro-3-(trifluoromethyl)phenyl)-3-(4-((2-(methylamino)-8,9-dihydroimidazo[1′,2′:1,6]pyrido[2,3-d]pyrimidin-6-yl)oxy)phenyl)urea] | 100 to 10000 nM | – | – | – | –
7 | CNc1ncc2c(n1)N1CCN=C1C(c1cc(NC(=O)Nc3ccccc3Cl)c(F)cc1Br)=C2 [Compound 327, 1-(4-bromo-2-fluoro-5-(2-(methylamino)-8,9-dihydroimidazo[1′,2′:1,6]pyrido[2,3-d]pyrimidin-6-yl)phenyl)-3-(2-chlorophenyl)urea] | < 100 nM | – | – | – | –
8 | Cn1nccc1Nc1ncc2c(n1)N1CCN=C1C(c1ccccc1Cl)=C2 [Compound 14, 6-(2-chlorophenyl)-N-(1-methyl-1H-pyrazol-5-yl)-8,9-dihydroimidazo[1′,2′:1,6]pyrido[2,3-d]pyrimidin-2-amine] | – | – | – | – | IC50 (SRC): > 10000 nM; IC50 (PAK1): > 10000 nM
9 | CNc1ncc2c(n1)N1CCCN=C1C(c1ccc(-n3ccnc(C)c3=O)cc1Cl)=C2 [Compound 73, 1-(3-chloro-4-(2-(methylamino)-9,10-dihydro-8H-pyrido[1,6-a:2,3-d′]dipyrimidin-6-yl)phenyl)-3-methylpyrazin-2(1H)-one] | – | – | – | – | IC50 (SRC): > 10000 nM; IC50 (PAK1): > 10000 nM

The next lines start with results.

Row | IC50 (c-Kit) | AUC [1] | Cmax [1] | Tmax [1] | SMILES | further results
10 | – | 8160 ± 1270 ng·h/mL | 839 ± 59 ng/mL | 1.67 ± 0.58 h | Cc1cc(F)c(NC(=O)c2cc(C(C)(C)C#N)ccn2)cc1C1=Cc2cnc(Nc3cnn(C)c3)nc2N2CCN=C12 [Compound 202, 4-(2-cyanopropan-2-yl)-N-(2-fluoro-4-methyl-5-(2-((1-methyl-1H-pyrazol-4-yl)amino)-8,9-dihydroimidazo[1′,2′:1,6]pyrido[2,3-d]pyrimidin-6-yl)phenyl)picolinamide] | F [1]: 56 ± 9%; Vd [1]: 9.64 ± 1.99 L/kg; half-life [1]: 3.99 ± 0.72 h; clearance [1]: 27.8 ± 1 mL/min/kg
11 | – | 11700 ± 1430 ng·h/mL | 1180 ± 193 ng/mL | 1.33 ± 0.58 h | Cc1ccc(NC(=O)c2cc(C(F)(F)F)ccn2)cc1C1=Cc2cnc(Nc3cncs3)nc2N2CCN=C12 [Compound 256, N-(4-methyl-3-(2-(thiazol-5-ylamino)-8,9-dihydroimidazo[1′,2′:1,6]pyrido[2,3-d]pyrimidin-6-yl)phenyl)-4-(trifluoromethyl)picolinamide] | –
12 | < 100 nM | – | – | – | O=C(Nc1cc(C2=Cc3cnc(NC4COC4)nc3N3CCN=C23)c(Br)cc1F)c1cc(C(F)(F)F)ccn1 [Compound 188, N-(4-bromo-2-fluoro-5-(2-(oxetan-3-ylamino)-8,9-dihydroimidazo[1′,2′:1,6]pyrido[2,3-d]pyrimidin-6-yl)phenyl)-4-(trifluoromethyl)picolinamide] | –
13 | – | 6320 ± 4580 ng·h/mL | 1100 ± 497 ng/mL | 1.33 ± 0.58 h | CNc1ncc2c(n1)N1CCN=C1C(c1cc(NC(=O)c3cc(C(C)(C)C#N)ccn3)ccc1C)=C2 [Compound 163, 4-(2-cyanopropan-2-yl)-N-(4-methyl-3-(2-(methylamino)-8,9-dihydroimidazo[1′,2′:1,6]pyrido[2,3-d]pyrimidin-6-yl)phenyl)picolinamide] | IC50 (HPK1 (MAP4K1)): < 100 nM; F [1]: 74.6 ± 54%; Vd [1]: 6.61 ± 1.04 L/kg; half-life [1]: 1.57 ± 0.2 h; clearance [1]: 48.8 ± 5.8 mL/min/kg
14 | < 100 nM | – | – | – | CNc1ncc2c(n1)N1CCN=C1C(c1cc(NC(=O)Nc3ccccc3F)c(F)cc1C)=C2 [Compound 338, 1-(2-fluoro-4-methyl-5-(2-(methylamino)-8,9-dihydroimidazo[1′,2′:1,6]pyrido[2,3-d]pyrimidin-6-yl)phenyl)-3-(2-fluorophenyl)urea] | –
15 | – | 8610 ± 903 ng·h/mL | 1760 ± 380 ng/mL | 2 h | Cc1cc(F)c(NC(=O)c2cc(C(C)(C)C#N)ccn2)cc1C1=Cc2cnc(NC3COC3)nc2N2CCN=C12 [Compound 181, 4-(2-cyanopropan-2-yl)-N-(2-fluoro-4-methyl-5-(2-(oxetan-3-ylamino)-8,9-dihydroimidazo[1′,2′:1,6]pyrido[2,3-d]pyrimidin-6-yl)phenyl)picolinamide] | IC50 (HPK1 (MAP4K1)): < 100 nM; F [1]: 58.1 ± 6.1%; Vd [1]: 4.78 ± 1.21 L/kg; half-life [1]: 2.01 ± 0.82 h; clearance [1]: 28.5 ± 3.8 mL/min/kg
16 | – | 16200 ± 2100 ng·h/mL | 1190 ± 302 ng/mL | 1.67 ± 0.58 h | Cc1ncc(Nc2ncc3c(n2)N2CCN=C2C(c2cc(NC(=O)c4cc(C(F)(F)F)ccn4)ccc2C)=C3)s1 [Compound 231, N-(4-methyl-3-(2-((2-methylthiazol-5-yl)amino)-8,9-dihydroimidazo[1′,2′:1,6]pyrido[2,3-d]pyrimidin-6-yl)phenyl)-4-(trifluoromethyl)picolinamide] | IC50 (HPK1 (MAP4K1)): < 100 nM
17 | – | 1730 ± 619 ng·h/mL | 245 ± 37 ng/mL | 2 h | Cc1ccc(NC(=O)c2cc(C(C)(C)C#N)ccn2)cc1C1=Cc2cnc(Nc3cnn(C)c3)nc2N2CCN=C12 [Compound 199, 4-(2-cyanopropan-2-yl)-N-(4-methyl-3-(2-((1-methyl-1H-pyrazol-4-yl)amino)-8,9-dihydroimidazo[1′,2′:1,6]pyrido[2,3-d]pyrimidin-6-yl)phenyl)picolinamide] | –
18 | – | 36900 ± 4060 ng·h/mL | 3060 ± 253 ng/mL | 1.67 ± 0.58 h | Cc1cc(Nc2ncc3c(n2)N2CCN=C2C(c2cc(NC(=O)c4cc(C(F)(F)F)ccn4)ccc2C)=C3)sn1 [Compound 242, N-(4-methyl-3-(2-((3-methylisothiazol-5-yl)amino)-8,9-dihydroimidazo[1′,2′:1,6]pyrido[2,3-d]pyrimidin-6-yl)phenyl)-4-(trifluoromethyl)picolinamide] | –
